pIC50: −log10 of the molar value.

IC50 data for 34 molecules are collected here from ChEMBL document CHEMBL1152794, “Synthesis and biological evaluation of a small molecule library of 3rd generation multidrug resistance modulators” (Bioorg Med Chem, 2009).

This assay concerns the target ATP-dependent translocase ABCB1 (Homo sapiens, UniProt P08183). The assay can be described thus: Inhibition of P-glycoprotein-mediated multidrug resistance in adriamycin-resistant human A2780/ADR cells by calcein AM assay. It counts as cell-based.

Chain of ATP-dependent translocase ABCB1 (P08183 whole entry): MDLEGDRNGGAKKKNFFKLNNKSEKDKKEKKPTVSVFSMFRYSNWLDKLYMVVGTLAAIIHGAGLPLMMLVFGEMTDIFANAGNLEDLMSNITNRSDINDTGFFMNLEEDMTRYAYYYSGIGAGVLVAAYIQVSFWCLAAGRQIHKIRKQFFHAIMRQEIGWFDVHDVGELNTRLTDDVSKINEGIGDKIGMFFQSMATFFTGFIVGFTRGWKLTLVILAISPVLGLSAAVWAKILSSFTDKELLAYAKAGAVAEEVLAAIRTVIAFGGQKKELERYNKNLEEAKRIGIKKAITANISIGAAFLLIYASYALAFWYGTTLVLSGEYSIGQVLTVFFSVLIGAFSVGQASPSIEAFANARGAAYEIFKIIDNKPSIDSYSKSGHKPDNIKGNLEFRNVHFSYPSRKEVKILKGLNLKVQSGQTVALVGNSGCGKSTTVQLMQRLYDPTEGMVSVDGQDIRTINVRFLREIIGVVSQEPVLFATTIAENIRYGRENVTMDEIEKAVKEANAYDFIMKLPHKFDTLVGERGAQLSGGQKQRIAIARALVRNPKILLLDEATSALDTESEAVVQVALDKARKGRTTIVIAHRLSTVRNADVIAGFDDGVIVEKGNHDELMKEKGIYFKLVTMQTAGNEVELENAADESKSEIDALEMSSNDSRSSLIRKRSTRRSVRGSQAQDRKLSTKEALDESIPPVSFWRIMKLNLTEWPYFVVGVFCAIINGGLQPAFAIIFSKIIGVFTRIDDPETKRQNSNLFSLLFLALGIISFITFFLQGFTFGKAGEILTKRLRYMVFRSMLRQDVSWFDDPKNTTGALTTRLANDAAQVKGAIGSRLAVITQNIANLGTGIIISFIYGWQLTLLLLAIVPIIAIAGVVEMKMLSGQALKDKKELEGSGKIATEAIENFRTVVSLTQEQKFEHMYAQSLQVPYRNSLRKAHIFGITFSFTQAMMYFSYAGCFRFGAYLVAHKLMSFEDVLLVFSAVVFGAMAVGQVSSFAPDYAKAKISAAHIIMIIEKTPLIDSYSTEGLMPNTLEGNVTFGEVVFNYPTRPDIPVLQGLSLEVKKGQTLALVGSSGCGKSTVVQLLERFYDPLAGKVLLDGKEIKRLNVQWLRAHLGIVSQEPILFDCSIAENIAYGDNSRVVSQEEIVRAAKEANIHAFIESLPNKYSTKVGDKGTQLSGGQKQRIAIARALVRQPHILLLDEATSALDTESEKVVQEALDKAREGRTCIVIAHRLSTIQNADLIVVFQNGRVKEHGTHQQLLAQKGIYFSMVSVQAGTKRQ

On to `COc1cc2c(cc1OC)CN(CCc1ccc(NC(=O)Nc3ccc(N)cc3)cc1)CC2`, for which the pIC50 (commonly the IC50 on a negative log10 scale, so that one unit is a factor of ten) is 4.51. With `COc1cc2c(cc1OC)CN(CCc1ccc(NC(=O)c3cccnc3)cc1)CC2`, the pIC50 was 5.32.

In the case of `COc1cc2c(cc1OC)CN(CCc1ccc(NC(=O)COc3ccccc3N)cc1)CC2`, the pIC50 was 5.47. For `Nc1ccc(C(=O)Nc2ccc(CCN3CCc4ccccc4C3)cc2)cc1` the value was 4.92; for `COc1cc2c(cc1OC)CN(CCc1ccc(NC(=O)c3ccnc4ccccc34)cc1)CC2`, 5.33. As for `COc1cc2c(cc1OC)CN(CCc1ccc(NC(=O)c3ccc4ccccc4n3)cc1)CC2`, the pIC50 is 6.07. Consider `COc1cc2c(cc1OC)CN(CCc1ccc(NC(=O)Nc3cccc(N)c3)cc1)CC2`, for which the pIC50 is 4.85. With `COc1cc2c(cc1OC)CN(CCc1ccc(NC(=O)COc3ccccc3[N+](=O)[O-])cc1)CC2`, the pIC50 was 6.66. For `COc1cc2c(cc1OC)CN(CCc1ccc(NC(=O)c3ccccc3)cc1)CC2` the value was 5.39.

On to `COc1cc2c(cc1OC)CN(CCc1ccc(NC(=O)/C=C/c3ccccc3)cc1)CC2`, for which the pIC50 was 5.85. As for `COc1cc2c(cc1OC)CN(CCc1ccc(NC(=O)Nc3ccc([N+](=O)[O-])cc3)cc1)CC2`, the pIC50 was 5.82. `COc1cc2c(cc1OC)CN(CCc1ccc(NC(=O)/C=C/c3ccc(Cl)cc3)cc1)CC2`: the negative-log IC50 (pIC50) is 6.17. For `COc1cc2c(cc1OC)CN(CCc1ccc(NC(=O)c3ccc(N)cc3)cc1)CC2` the value was 5.36. With `COc1cc2c(cc1OC)CN(CCc1ccc(NC(=O)Nc3ccccc3[N+](=O)[O-])cc1)CC2`, the pIC50 was 6.48.

On to `COc1cc2c(cc1OC)CN(CCc1ccc(NC(=O)/C=C/c3ccccc3[N+](=O)[O-])cc1)CC2`, for which the pIC50 was 5.96. In the case of `O=C(Nc1ccc(CCN2CCc3ccccc3C2)cc1)Nc1ccccc1[N+](=O)[O-]`, the pIC50 is 6.11. In the case of `COc1cc2c(cc1OC)CN(CCc1ccc(NC(=O)c3cnc4ccccc4c3)cc1)CC2`, the pIC50 is 6.24. In the case of `COc1cc(/C=C/C(=O)Nc2ccc(CCN3CCc4cc(OC)c(OC)cc4C3)cc2)c([N+](=O)[O-])cc1OC`, the pIC50 is 5.82. Regarding `Nc1ccccc1NC(=O)Nc1ccc(CCN2CCc3ccccc3C2)cc1`, the negative logarithm of the IC50 (pIC50) is 4.72. As for `COc1cc2c(cc1OC)CN(CCc1ccc(NC(=O)c3ccc4ncccc4c3)cc1)CC2`, the figure is 6.19. As for `O=C(Nc1ccc(CCN2CCc3ccccc3C2)cc1)c1ccc([N+](=O)[O-])cc1`, the figure is 5.25.

With `COc1cc2c(cc1OC)CN(CCc1ccc(NC(=O)COc3ccccc3)cc1)CC2`, the pIC50 is 5.51. As for `COc1cc2c(cc1OC)CN(CCc1ccc(NC(=O)Nc3cccc([N+](=O)[O-])c3)cc1)CC2`, the figure is 6.17; as for `COc1cc2c(cc1OC)CN(CCc1ccc(NC(=O)c3ccccc3Br)cc1)CC2`, 5.48; as for `COc1cc2c(cc1OC)CN(CCc1ccc(NC(=O)c3cccc(Br)c3)cc1)CC2`, 5.74. For `COc1cc2c(cc1OC)CN(CCc1ccc(NC(=O)c3ccccc3[N+](=O)[O-])cc1)CC2`, the pIC50 was 5.27. Take `COc1cc2c(cc1OC)CN(CCc1ccc(NC(=O)c3ccc4ccccc4c3)cc1)CC2`: the negative logarithm of the IC50 (pIC50) is 6.20. `O=C(Nc1ccc(CCN2CCc3ccccc3C2)cc1)c1ccccc1[N+](=O)[O-]`: the pIC50 is 4.85. In the case of `COc1cc2c(cc1OC)CN(CCc1ccc(NC(=O)c3ccc([N+](=O)[O-])cc3)cc1)CC2`, the pIC50 was 5.85. For the molecule `COc1cc2c(cc1OC)CN(CCc1ccc(NC(=O)c3cnc4ccccc4n3)cc1)CC2`, the pIC50 is 6.33. As for `COc1cc2c(cc1OC)CN(CCc1ccc(NC(=O)c3ccccc3N)cc1)CC2`, the figure is 5.07; as for `COc1cc2c(cc1OC)CN(CCc1ccc(NC(=O)c3ccc4c(c3)OCO4)cc1)CC2`, 5.68. In the case of `COc1cc2c(cc1OC)CN(CCc1ccc(NC(=O)Nc3ccccc3N)cc1)CC2`, the pIC50 was 4.68. With `COc1cc2c(cc1OC)CN(CCc1ccc(NC(=O)c3cc(OC)c(OC)cc3NC(=O)c3cnc4ccccc4c3)cc1)CC2`, the pIC50 was 7.11.
